Like-named read-outs stand apart in the source and are kept apart here. Numbered stars: 1 amine (or outer) side, 2 acyl side, 3 side chain; on linkers, the order of the positions; unused ones are H or OH. Bridge positions count the residues as written; N and C are the ends. Square brackets hold non-standard residues; d marks the D form. Peptide text beside a SMILES is read from it. Tartaroyl(2R,3R-(OAc)2) = CC(=O)O[C@@H](C(=O)[*:1])[C@@H](OC(C)=O)C(=O)[*:2]; Phe(4-COOH) = N[C@@H](Cc1ccc(C(=O)O)cc1)C(=O)O; Bip = N[C@@H](Cc1ccc(-c2ccccc2)cc1)C(=O)O; dPhe(4-NH2) = Nc1ccc(C[C@@H](N)C(=O)O)cc1; dPhe(4-Br) = N[C@H](Cc1ccc(Br)cc1)C(=O)O; Phe(4-NH2) = Nc1ccc(C[C@H](N)C(=O)O)cc1; dPhe(2-Me) = Cc1ccccc1C[C@@H](N)C(=O)O; 1Nal = N[C@@H](Cc1cccc2ccccc12)C(=O)O; d(hPhe) = N[C@H](CCc1ccccc1)C(=O)O; hPhe = N[C@@H](CCc1ccccc1)C(=O)O; 4Pal = N[C@@H](Cc1ccncc1)C(=O)O; 2Thi = N[C@@H](Cc1cccs1)C(=O)O; d2Thi = N[C@H](Cc1cccs1)C(=O)O; Suc = O=C(CCC(=O)[*:2])[*:1]; Nphe = O=C(O)CNCc1ccccc1; βAla = NCCC(=O)O
Molecular target: T1, TNFα / TNFα receptor (TNFα R1/Fc) (Homo sapiens, UniProt P01375)
T1 construct: purchased R&D Systems
Experiment: Inhibition of binding of TNFα to the TNFα receptor (plate ELISA competition)
Details: Table 2
Summary of the method: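 Compound dilutions were preincubated 30 min at RT with 8.33 nM TNFα R1/Fc in PBST with 2% DMSO, then added to wells coated with 15 nM TNFα for 30 min. Bound receptor was detected with HRP anti-human Fc and TMB, read as A450.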

[1] = read-out: Activity (IC50, inhibition of TNFα binding to TNFα R1/Fc)
[2] = Activity (IC50, inhibition of TNFα binding to TNFα R1/Fc)

T1 sequence (P01375 77-233 limits assumed, species assumed): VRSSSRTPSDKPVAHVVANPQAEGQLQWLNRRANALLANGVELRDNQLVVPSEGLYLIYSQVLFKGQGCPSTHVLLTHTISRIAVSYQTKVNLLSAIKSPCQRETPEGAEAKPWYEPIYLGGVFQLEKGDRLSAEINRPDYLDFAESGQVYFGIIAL

| SMILES | IC50 [1] [µM] | IC50 [2] [µM] |
| --- | --- | --- |
| O=C(O)CNC(=O)[C@@H]1Cc2ccc(cc2)OCC(=O)N[C@@H](Cc2cccs2)C(=O)N[C@H](Cc2ccc(-c3ccccc3)cc2)C(=O)N[C@@H](Cc2ccccc2)C(=O)N1 [Compound 383] | < 10 |  |
| O=C(O)[C@H](Cc1ccccc1)NC(=O)[C@H]1Cc2ccc(cc2)NC(=O)[C@H](O)[C@@H](O)C(=O)N[C@@H](Cc2cccs2)C(=O)N[C@H](Cc2ccc(Br)cc2)C(=O)N[C@@H](CCc2ccccc2)C(=O)N1 [Compound 436] | < 10 |  |
| O=C1N[C@H](Cc2ccccc2)C(=O)N[C@@H](C(=O)O)Cc2ccc(cc2)NC(=O)[C@H](O)[C@@H](O)C(=O)N[C@H](Cc2ccccc2)C(=O)N[C@H]1Cc1ccc(Cl)cc1Cl [Compound 243] | 30 to 100 |  |
| O=C1CCC(=O)N[C@H](CCc2ccccc2)C(=O)N[C@@H](Cc2ccc(C(F)(F)F)cc2)C(=O)N[C@H](Cc2ccccc2)C(=O)N[C@H](C(=O)O)Cc2ccc(cn2)N1 [Compound 548] | 30 to 100 |  |
| O=C(O)CCCNC(=O)[C@@H]1Cc2ccc(cc2)OCC(=O)N[C@@H](Cc2ccc(-c3ccccc3)cc2)C(=O)N[C@H](Cc2ccc(-c3ccccc3)cc2)C(=O)N[C@@H](CCc2ccccc2)C(=O)N1 [Compound 568] | 30 to 100 |  |
| O=C1CCNC(=O)c2ccc(cc2)C[C@@H](C(=O)N[C@H](Cc2ccccc2)C(=O)O)NC(=O)[C@@H](Cc2ccccc2)NC(=O)[C@H](Cc2ccc(-c3ccccc3)cc2)NC(=O)[C@@H](CCc2ccccc2)N1 [Compound 423] ([βAla][d(hPhe)][Bip][dF][Phe(4-COOH)][dF]-OH; lactam N-5) | < 10 |  |
| O=C1COc2ccc(cc2)C[C@@H](C(=O)O)NC(=O)[C@H](Cc2ccc(-c3ccncc3)cc2)NC(=O)[C@@H](Cc2ccc(-c3ccccc3)cc2)NC(=O)[C@H](Cc2ccncc2)N1 [Compound 645] | < 10 |  |
| CC(=O)O[C@H]1C(=O)Nc2ccc(cc2)C[C@H](C(=O)N[C@@H](Cc2ccccc2)C(=O)O)NC(=O)[C@H](CCc2ccccc2)NC(=O)[C@@H](Cc2ccc(Br)cc2)NC(=O)[C@H](Cc2cccs2)NC(=O)[C@@H]1OC(C)=O [Compound 415] ([2Thi][dPhe(4-Br)][hPhe][dPhe(4-NH2)]F-OH; linker N-4 via Tartaroyl(2R,3R-(OAc)2)) | > 100 |  |
| O=C1COc2ccc(cc2)C[C@@H](C(=O)O)NC(=O)[C@@H](CCc2ccccc2)NC(=O)[C@H](Cc2ccc(-c3ccccc3)cc2)NC(=O)[C@@H](Cc2ccc(F)cc2)N1 [Compound 519] | 10 to 30 |  |
| Cc1ccccc1C[C@H]1NC(=O)[C@H](Cc2ccc(-c3ccccc3)cc2)NC(=O)[C@@H](Cc2cccs2)NC(=O)CCC(=O)Nc2ccc(cc2)C[C@@H](C(=O)O)NC1=O [Compound 80] ([d2Thi][Bip][dPhe(2-Me)][Phe(4-NH2)]-OH; linker N-4 via Suc) | > 100 |  |
| O=C1CCC(=O)N[C@H](Cc2cccs2)C(=O)N[C@@H](Cc2ccc(-c3ccccc3)cc2)C(=O)N[C@@H](Cc2ccncc2)C(=O)N[C@H](C(=O)O)Cc2ccc(cc2)N1 [Compound 49] ([d2Thi][Bip][4Pal][Phe(4-NH2)]-OH; linker N-4 via Suc) | > 100 |  |
| O=C1CCC(=O)N[C@H](Cc2cccs2)C(=O)N[C@@H](Cc2ccc(-c3ccccc3)cc2)C(=O)N(Cc2ccccc2)CC(=O)N[C@H](C(=O)O)Cc2ccc(cc2)N1 [Compound 55] ([d2Thi][Bip][Nphe][Phe(4-NH2)]-OH; linker N-4 via Suc) | > 100 |  |
| O=C1CCC(=O)N[C@H](Cc2cccs2)C(=O)N[C@H](c2ccc(Br)cc2)CC(=O)N[C@H](Cc2ccccc2)C(=O)N[C@H](C(=O)O)Cc2ccc(cc2)N1 [Compound 107] | > 100 |  |
| O=C1CCC(=O)N[C@H](CCc2ccccc2)C(=O)N[C@@H](Cc2cccc3ccccc23)C(=O)N[C@H](Cc2ccccc2)C(=O)N[C@H](C(=O)O)Cc2ccc(cc2)N1 [Compound 108] ([d(hPhe)][1Nal][dF][Phe(4-NH2)]-OH; linker N-4 via Suc) | 10 to 30 |  |
| O=C1COc2ccc(cc2)C[C@@H](C(=O)O)NC(=O)[C@@H](CCc2ccccc2)NC(=O)[C@H](Cc2ccc(-c3ccccc3)cc2)NC(=O)C(c2ccc(Br)cc2)N1 (stereo partly shown) [Compound 517] | 10 to 30 |  |
| CC(=O)N[C@@H]1CC(=O)N[C@H](Cc2cccs2)C(=O)N[C@@H](Cc2ccc(-c3ccccc3)cc2)C(=O)N[C@H](Cc2ccccc2)C(=O)N[C@H](C(=O)O)Cc2ccc(cc2)NC1=O [Compound 378] | 10 to 30 |  |
| O=C(O)[C@@H]1Cc2ccc(cc2)NC(=O)[C@@H](O)[C@H](O)C(=O)N[C@H](Cc2cccs2)C(=O)N[C@@H](Cc2ccc(-c3ccccc3)cc2)C(=O)N[C@H](Cc2ccccc2)C(=O)N1 [Compound 185] | > 100 |  |
| O=C1COc2ccc(cc2)C[C@@H](C(=O)O)NC(=O)[C@H](CCc2ccccc2)NC(=O)[C@@H](Cc2ccc(-c3ccccc3)cc2)NC(=O)[C@H](Cc2ccc(C(F)(F)F)cc2)N1 [Compound 691] | < 10 |  |
| CC(=O)O[C@H]1C(=O)Nc2ccc(cc2)C[C@H](C(=O)N[C@@H](Cc2ccccc2)C(=O)O)NC(=O)[C@H](Cc2ccccc2)NC(=O)[C@@H](Cc2ccc(Br)cc2)NC(=O)[C@H](Cc2cccs2)NC(=O)[C@@H]1OC(C)=O [Compound 417] ([2Thi][dPhe(4-Br)]F[dPhe(4-NH2)]F-OH; linker N-4 via Tartaroyl(2R,3R-(OAc)2)) | > 100 |  |

| SMILES | IC50 [1] [µM] | IC50 [2] [µM] |
| --- | --- | --- |
| O=C1COc2ccc(cc2)C[C@@H](C(=O)O)NC(=O)[C@@H](CCc2ccccc2)NC(=O)[C@H](Cc2ccc(F)cc2)NC(=O)[C@@H](Cc2cccs2)N1 [Compound 527] | > 100 |  |
| N#Cc1ccccc1C[C@H]1NC(=O)[C@H](O)[C@@H](O)C(=O)Nc2ccc(cc2)C[C@@H](C(=O)O)NC(=O)[C@@H](Cc2ccccc2)NC(=O)[C@H](Cc2ccc(-c3ccccc3)cc2)NC1=O [Compound 314] | 10 to 30 |  |
| O=C1COc2ccc(cc2)C[C@@H](C(=O)O)NC(=O)[C@H](CCc2ccccc2)NC(=O)[C@@H](CCc2ccccc2)NC(=O)[C@H](CCc2ccccc2)N1 [Compound 724] | < 10 |  |
| CC(=O)O[C@H]1C(=O)Nc2ccc(cc2)C[C@H](C(=O)N[C@@H](Cc2ccccc2)C(=O)O)NC(=O)[C@@H](CCc2ccccc2)NC(=O)[C@H](Cc2ccc(-c3ccccc3)cc2)NC(=O)[C@@H](Cc2cccs2)NC(=O)[C@@H]1OC(C)=O [Compound 409] ([d2Thi][Bip][d(hPhe)][dPhe(4-NH2)]F-OH; linker N-4 via Tartaroyl(2R,3R-(OAc)2)) | < 10 |  |
| O=C(O)CCCNC(=O)[C@@H]1Cc2ccc(cc2)OCC(=O)N[C@@H](Cc2ccncc2)C(=O)N[C@H](Cc2ccc(-c3ccccc3)cc2)C(=O)N[C@@H](Cc2c[nH]c3ccccc23)C(=O)N1 [Compound 722] | < 10 |  |
| CC(C)(C)c1ccc(C[C@@H]2NC(=O)[C@@H](Cc3ccc(-c4ccccc4)cc3)NC(=O)[C@H](Cc3cccs3)NC(=O)COc3ccc(cc3)C[C@@H](C(=O)O)NC2=O)cc1 [Compound 635] | < 10 |  |
| O=C1COc2ccc(cc2)C[C@H](C(=O)N[C@@H](Cc2ccccc2)C(=O)O)NC(=O)[C@@H](CCc2ccccc2)NC(=O)[C@H](Cc2ccc(-c3ccccc3)cc2)NC(=O)[C@@H](Cc2cccs2)N1 [Compound 561] |  | < 10 |
| O=C1CCC(=O)N[C@H](CCc2ccccc2)C(=O)N[C@@H](Cc2ccc(-c3ncccn3)cc2)C(=O)N[C@H](Cc2ccccc2)C(=O)N[C@H](C(=O)O)Cc2ccc(cc2)N1 [Compound 114] | > 100 |  |
| O=C1COc2ccc(cc2)C[C@@H](C(=O)O)NC(=O)[C@H](Cc2ccccc2)NC(=O)[C@@H](Cc2ccc(F)cc2)NC(=O)[C@H](Cc2cccs2)N1 [Compound 355] | > 100 |  |
| CC(=O)N[C@@H]1CC(=O)Nc2ccc(cc2)C[C@@H](C(=O)O)NC(=O)[C@@H](Cc2ccccc2)NC(=O)[C@H](Cc2ccc(-c3ccccc3)cc2)NC(=O)[C@@H](Cc2cccs2)NC1=O [Compound 376] (Ac-[dD][d2Thi][Bip][dF][Phe(4-NH2)]-OH; lactam 1-5) | 10 to 30 |  |
| O=C1COc2ccc(cc2)C[C@@H](C(=O)N[C@H](Cc2ccccc2)C(=O)O)NC(=O)[C@H](CCc2ccccc2)NC(=O)[C@@H](Cc2ccc(-c3ccccc3)cc2)NC(=O)[C@H](Cc2cccs2)N1 [Compound 480] |  | 10 to 30 |
| O=C1CCC(=O)N[C@H](CCc2ccccc2)C(=O)N[C@@H](Cc2ccc(-c3ccccc3)cc2)C(=O)N[C@H](Cc2ccccc2)C(=O)N[C@H](C(=O)N[C@@H](CCc2ccccc2)C(=O)O)Cc2ccc(cc2)N1 [Compound 470] ([d(hPhe)][Bip][dF][Phe(4-NH2)][hPhe]-OH; linker N-4 via Suc) | < 10 |  |
| O=C1COc2ccc(cc2)C[C@@H](C(=O)NCCS(=O)(=O)O)NC(=O)[C@H](CCc2ccccc2)NC(=O)[C@@H](Cc2ccc(-c3ccccc3)cc2)NC(=O)[C@H](Cc2ccc(-c3ccccc3)cc2)N1 [Compound 608] | 10 to 30 |  |
| O=C1CCC(=O)N[C@H](CCc2ccccc2)C(=O)N[C@@H](Cc2ccc(-c3cccc(Cl)c3)cc2)C(=O)N[C@H](Cc2ccccc2)C(=O)N[C@H](C(=O)O)Cc2ccc(cc2)N1 [Compound 171] | > 100 |  |
| O=C(O)CNC(=O)[C@@H]1Cc2ccc(cc2)NC(=O)CCC(=O)N[C@H](Cc2cccs2)C(=O)N[C@@H](Cc2ccc(-c3ccccc3)cc2)C(=O)N[C@H](CCc2ccccc2)C(=O)N1 [Compound 453] ([d2Thi][Bip][d(hPhe)][Phe(4-NH2)]G-OH; linker N-4 via Suc) | > 100 |  |
| O=C1COc2ccc(cc2)C[C@@H](C(=O)O)NC(=O)[C@H](CCc2ccccc2)NC(=O)[C@@H](Cc2ccc(-c3ccccc3)cc2)NC(=O)[C@H](Cc2ccc([N+](=O)[O-])cc2)N1 [Compound 512] | < 10 |  |
| O=C1N[C@@H](C(=O)O)Cc2ccc(cc2)NC(=O)[C@H](O)[C@@H](O)C(=O)N[C@H](Cc2cccs2)C(=O)N[C@@H](Cc2ccc(-c3ccccc3)cc2)C(=O)N[C@H]1Cc1ccccc1 [Compound 275] | > 100 |  |
| O=C1COc2ccc(cc2)C[C@@H](C(=O)N[C@@H](Cc2ccccc2)C(=O)O)NC(=O)[C@H](Cc2ccccc2)NC(=O)[C@H](Cc2ccc(-c3ccccc3)cc2)NC(=O)[C@H](Cc2cccs2)N1 [Compound 229] | < 10 |  |

From patent US8338565B2, “Macrocyclic compounds for inhibition of tumor necrosis factor alpha” (Ensemble Therapeutics Corporation, priority 2008, dated 2012)
